Source: ChEMBL document CHEMBL5620397, “Design, synthesis and biological evaluation of 3-substituted-2-thioxothiazolidin-4-one (rhodanine) derivatives as antitubercular agents against Mycobacterium tuberculosis protein tyrosine phosphatase B” (Eur J Med Chem, 2023)
≈ marks a conversion by molar mass, not a printed value.

Experiments:
[1] = target: T1, Phosphotyrosine protein phosphatase (Mycobacterium tuberculosis, UniProt A0A045ISB3); assay: Inhibition of Mycobacterium tuberculosis ptpB
T1 sequence (A0A045ISB3 whole entry): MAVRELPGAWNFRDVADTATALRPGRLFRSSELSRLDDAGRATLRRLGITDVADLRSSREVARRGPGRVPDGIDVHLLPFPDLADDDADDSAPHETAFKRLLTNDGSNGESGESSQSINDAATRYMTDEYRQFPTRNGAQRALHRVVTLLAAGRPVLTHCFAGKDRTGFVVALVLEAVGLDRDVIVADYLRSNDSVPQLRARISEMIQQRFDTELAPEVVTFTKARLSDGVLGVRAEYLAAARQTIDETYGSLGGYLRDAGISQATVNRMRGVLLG

[2] = target: T2, Triple specificity protein phosphatase PtpB (Mycobacterium tuberculosis (strain ATCC 25618 / H37Rv), UniProt I6WXK4); assay: Inhibition of Mycobacterium tuberculosis H37Rv ptpB expressed in Escherichia coli BL21(DE3) using pNPP as substrate preincubated for 10 mins followed by substrate addition and measured for 5 mins by spectrophotometer analysis
T2 sequence (I6WXK4 whole entry): T1 sequence (A0A045ISB3 whole entry)

[3] = target: T3, Triple specificity protein phosphatase PtpB (Mycobacterium tuberculosis (strain ATCC 25618 / H37Rv)) (UniProt I6WXK4); assay: (§1) Inhibition of Mycobacterium tuberculosis H37Rv ptpB expressed in Escherichia coli BL21(DE3) at 50 uM using pNPP as substrate preincubated for 10 mins followed by substrate addition and measured for 5 mins by spectrophotometer analysis relative to control; details: time 15.0 min
T3 sequence (whole entry): T1 sequence (A0A045ISB3 whole entry)

[4] = target: Triple specificity protein phosphatase PtpB (Mycobacterium tuberculosis (strain ATCC 25618 / H37Rv)) (UniProt I6WXK4); assay: as §1; details: time 15.0 min; remark: listed apart in the source
[5] = target: T3, Triple specificity protein phosphatase PtpB (Mycobacterium tuberculosis (strain ATCC 25618 / H37Rv)); assay: Inhibition of Mycobacterium tuberculosis H37Rv ptpB expressed in Escherichia coli BL21(DE3) at 10 uM using pNPP as substrate preincubated for 10 mins followed by substrate addition and measured for 5 mins by spectrophotometer analysis relative to control; details: time 15.0 min
[6] = target: T4, Tyrosine-protein phosphatase non-receptor type 1 (Homo sapiens, UniProt P18031); assay: Inhibition of recombinant human PTP1B using pNPP as substrate preincubated for 5 mins followed by substrate addition and measured for 10 mins; format: toxicity
T4 sequence (P18031 whole entry): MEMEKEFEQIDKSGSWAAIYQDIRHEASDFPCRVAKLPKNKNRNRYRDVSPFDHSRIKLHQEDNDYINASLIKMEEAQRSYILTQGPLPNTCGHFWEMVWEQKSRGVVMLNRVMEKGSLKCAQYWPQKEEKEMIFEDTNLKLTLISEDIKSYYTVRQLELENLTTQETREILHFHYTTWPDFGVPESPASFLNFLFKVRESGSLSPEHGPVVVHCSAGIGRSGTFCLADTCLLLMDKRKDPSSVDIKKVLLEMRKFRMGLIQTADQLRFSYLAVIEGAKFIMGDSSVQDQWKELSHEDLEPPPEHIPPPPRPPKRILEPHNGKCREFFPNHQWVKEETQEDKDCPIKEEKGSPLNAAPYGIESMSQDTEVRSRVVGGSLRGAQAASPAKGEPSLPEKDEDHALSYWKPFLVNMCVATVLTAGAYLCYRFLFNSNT

[7] = Cytotoxicity against mouse J774.G8 cells after 48 hrs by MTT assay; format: functional, cell-based; details: J774.G8, 48 h
[8] = Metabolic stability in human liver microsomes assessed as half life preincubated for 5 mins followed by NADPH addition and measured upto 30 mins by LC-MS/MS assay; format: ADME, Microsome; details: time < 35 min
[9] = Metabolic stability in mouse liver microsomes assessed as intrinsic clearance per mg protein preincubated for 5 mins followed by NADPH addition and measured upto 30 mins by LC-MS/MS assay; format: ADME, Microsome; details: time < 35 min, read-out: CLH
Vero = assay: cells; details: Chlorocebus sabaeus, 48 h
Description: Cytotoxicity against african green monkey Vero cells after 48 hrs by MTT assay

[10] = Metabolic stability in mouse liver microsomes assessed as substrate remaining preincubated for 5 mins followed by NADPH addition and measured upto 30 mins by LC-MS/MS assay; format: ADME, Microsome; details: time < 35 min, read-out: Stability
[11] = Metabolic stability in human liver microsomes assessed as substrate remaining preincubated for 5 mins followed by NADPH addition and measured upto 30 mins by LC-MS/MS assay; format: ADME, Microsome; details: time < 35 min, read-out: Stability
[12] = tested on: PTP1B versus M. tuberculosis ptpB; assay: Selectivity index, ratio of IC50 for human PTP1B to Mycobacterium tuberculosis H37Rv ptpB; format: toxicity; details: read-out: Ratio IC50
[13] = Metabolic stability in mouse liver microsomes in absence of NADPH by LC-MS/MS assay; format: ADME, Microsome
[14] = Metabolic stability in human liver microsomes assessed as intrinsic clearance per mg protein preincubated for 5 mins followed by NADPH addition and measured upto 30 mins by LC-MS/MS assay; format: ADME, Microsome; details: time < 35 min, read-out: CLH
[15] = tested on: Mycobacterium tuberculosis; assay: Antituberculosis activity against Mycobacterium tuberculosis H37Rv in mouse J774A.1 cells assessed as reduction in intracellular bacterial burden measured after 21 days by agar plate method; format: functional, organism-based; details: J774.A1, dose 1-10 µg/ml, time 21.0 day
[16] = Metabolic stability in human liver microsomes in absence of NADPH by LC-MS/MS assay; format: ADME, Microsome
[17] = Metabolic stability in mouse liver microsomes assessed as half life preincubated for 5 mins followed by NADPH addition and measured upto 30 mins by LC-MS/MS assay; format: ADME, Microsome; details: time < 35 min
[18] = tested on: Mycobacterium tuberculosis; assay: Antituberculosis activity against Mycobacterium tuberculosis H37Rv by microplate alamar blue assay; format: functional
[19] = target: T5, Low molecular weight protein-tyrosine phosphatase A (Mycobacterium tuberculosis) (UniProt P9WIA1); assay: Inhibition of Mycobacterium tuberculosis H37Rv ptpA expressed in Escherichia coli BL21(DE3) at 10 uM using pNPP as substrate preincubated for 10 mins followed by substrate addition and measured for 5 mins by spectrophotometer analysis relative to control; details: time 15.0 min
T5 sequence (whole entry): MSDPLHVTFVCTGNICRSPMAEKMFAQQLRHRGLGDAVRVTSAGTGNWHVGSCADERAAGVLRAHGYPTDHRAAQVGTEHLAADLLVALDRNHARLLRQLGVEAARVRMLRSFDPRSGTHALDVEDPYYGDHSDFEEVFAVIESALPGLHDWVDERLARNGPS

Molecule | IC50 [2] | inhibition [3] | IC50 [6] | further results
Cc1onc(C(=O)O)c1-c1cccc(-c2cc(Cl)c(O)c(Cl)c2)c1 | – | – | – | IC50 [1]: 2980 nM
CCCC[C@@H](C(=O)O)N1C(=O)/C(=C/c2ccc(-c3ccncc3Cl)cc2)SC1=S | 800 nM | 97.1% | – | –
SODIUM ORTHOVANAD | – | – | – | inhibition [4]: 97.4%
CCOC(=O)C1=C(C)Oc2nc(C)n(Cc3cn([C@@H]4O[C@H](COC(C)=O)[C@@H](OC(C)=O)[C@H](OC(C)=O)[C@H]4OC(C)=O)nn3)c(=O)c2C1c1cc(OC)c(OC)c(OC)c1 (some centres undefined) | – | – | – | IC50 [1]: 1560 nM
CCN(CC)c1ccc(/C=C2\SC(=S)NC2=O)c(OCc2ccc(Cl)cc2Cl)c1 | – | > 35% | – | –
CCCC[C@@H](C(=O)O)N1C(=O)/C(=C/c2ccc(-c3ccc(F)c(C(F)(F)F)c3)c3ccccc23)SC1=S | 670 nM | – | 5540 nM | inhibition [5]: 105%
CCCC[C@@H](C(=O)O)N1C(=O)/C(=C/c2ccc(-c3ccc(Cl)cc3)cc2)SC1=S | 600 nM | 98.9% | 1510 nM | –
CCCC[C@@H](C(=O)O)N1C(=O)/C(=C/c2ccc(-c3cccc(Cl)c3)cn2)SC1=S | 530 nM | – | 390 nM | inhibition [5]: 99.5%
O=C(O)[C@H](C1CCCCC1)N1C(=O)/C(=C/c2ccc(-c3cccc(C(F)(F)F)c3)cc2)SC1=S | 350 nM | 96.5% | 1750 nM | IC50 [7]: 38 µg/mL (≈ 75.2 µM); half-life [8]: > 1.55 h; microsomal CLint [9]: < 22.1 µL/min/mg; IC50 (Vero): 30.6 µg/mL (≈ 60.5 µM); remaining at 0.5 h [10]: 80%; remaining at 0.5 h [11]: 101%; selectivity ratio [12]: 5; Stability [13]: Stable; microsomal CLint [14]: < 6.1 µL/min/mg; Activity [15]: Dose-Dependent Effect; Stability [16]: Stable; half-life [17]: > 1.55 h; MIC [18]: 31.4 µg/mL (≈ 62.1 µM); inhibition [19]: 16.6%
CCCC[C@@H](C(=O)O)N1C(=O)/C(=C/c2ccc(-c3cccc(C(F)(F)F)c3)c(Cl)c2)SC1=S | 420 nM | – | 1530 nM | inhibition [5]: 99.6%
O=C(O)[C@@H](Cc1ccccc1)N1C(=O)/C(=C/c2ccc(-c3ccc(F)c(C(F)(F)F)c3)cc2)SC1=S | – | 56.8% | – | –
O=C(O)[C@H](C1CCCCC1)N1C(=O)/C(=C/c2ccc(-c3ccccc3C(F)(F)F)cc2)SC1=S | 920 nM | 93% | 1600 nM | –
CCCC[C@H](C(=O)O)N1C(=O)/C(=C/c2ccc(-c3ccc(F)c(C(F)(F)F)c3)cc2)SC1=S | – | 26.4% | – | –
O=C(O)[C@@H](C1CCCCC1)N1C(=O)/C(=C/c2ccc(-c3ccc(F)c(C(F)(F)F)c3)cc2)SC1=S | – | 30.5% | – | –
CCCC[C@@H](C(=O)O)N1C(=O)/C(=C/c2ccc(-c3ccccc3)cc2)SC1=S | 620 nM | 94% | – | –
CCCC[C@@H](C(=O)O)N1C(=O)/C(=C/c2ccc(-c3cccc(OC)c3)cc2)SC1=S | 750 nM | 100% | 430 nM | –
CCCC[C@@H](C(=O)O)N1C(=O)/C(=C/c2ccc(-c3ccc(Cl)s3)cc2)SC1=S | 430 nM | 98.4% | 200 nM | –

Molecule | IC50 [2] | inhibition [3] | IC50 [6] | further results
O=C1OC(c2ccccc2C(F)(F)F)C(c2ccc3ccccc3n2)=C1O (centres undefined) | – | – | – | IC50 [1]: 31100 nM
CCCC[C@@H](C(=O)O)N1C(=O)/C(=C/c2ccc(-c3ccc(OC)cc3)cc2)SC1=S | 550 nM | 99.4% | 770 nM | –
CCCC[C@@H](C(=O)O)N1C(=O)/C(=C/c2ccc(-c3ccc(C(F)(F)F)cc3)cc2)SC1=S | 860 nM | 100% | 1340 nM | –
NNC(=O)c1ccncc1 [ISONIAZID] | – | – | – | IC50 [7]: > 64 µg/mL; IC50 (Vero): > 64 µg/mL; MIC [18]: 0.038 µg/mL (≈ 0.277 µM)
O=C(O)[C@H](C1CCCCC1)N1C(=O)/C(=C/c2ccc(-c3cccc(Cl)c3)cc2)SC1=S | 990 nM | 106% | 1120 nM | –
O=C(O)[C@H](c1ccccc1)N1C(=O)/C(=C/c2ccc(-c3ccc(F)c(C(F)(F)F)c3)cc2)SC1=S | 2340 nM | 97% | – | –
O=C(O)[C@H](C1CCCCC1)N1C(=O)/C(=C/c2ccc(-c3ccc(C(F)(F)F)cc3)cc2)SC1=S | 3130 nM | 103% | – | –
CCCC[C@@H](C(=O)O)N1C(=O)/C(=C/c2ccc(-c3cccc(Cl)c3)s2)SC1=S | 440 nM | – | 160 nM | inhibition [5]: 99%
O=C(O)[C@H](Cc1ccccc1)N1C(=O)/C(=C/c2ccc(-c3ccc(F)c(C(F)(F)F)c3)cc2)SC1=S | 920 nM | 71.3% | – | –
CCCC[C@@H](C(=O)O)N1C(=O)/C(=C/c2ccc(-c3ccc(F)c(C(F)(F)F)c3)cc2)SC1=S | 480 nM | 106% | 11300 nM | IC50 [7]: 47.7 µg/mL (≈ 95.9 µM); half-life [8]: > 1.55 h; microsomal CLint [9]: < 22.1 µL/min/mg; IC50 (Vero): 28.2 µg/mL (≈ 56.7 µM); remaining at 0.5 h [10]: 101%; remaining at 0.5 h [11]: 96.9%; selectivity ratio [12]: 20; Stability [13]: Stable; microsomal CLint [14]: < 6.1 µL/min/mg; Activity [15]: Dose-Dependent Effect; Stability [16]: Stable; half-life [17]: > 1.55 h; MIC [18]: 31.7 µg/mL (≈ 63.7 µM); inhibition [19]: 20.2%
CCCC[C@@H](C(=O)O)N1C(=O)/C(=C/c2ccc(-c3cccc(Cl)c3)c(Cl)c2)SC1=S | 330 nM | – | 940 nM | inhibition [5]: 102%
CCCC[C@@H](C(=O)O)N1C(=O)/C(=C/c2ccc(-c3cccc(C(F)(F)F)c3)c3ccccc23)SC1=S | 590 nM | – | 40 nM | inhibition [5]: 98.6%
O=C(O)CN1C(=O)/C(=C/c2ccc(-c3ccc(F)c(C(F)(F)F)c3)cc2)SC1=S | 16400 nM | 99.4% | – | –
CCCC[C@@H](C(=O)O)N1C(=O)/C(=C/c2ccc(-c3cccc(Cl)c3)cc2)SC1=S | 380 nM | 102% | 1870 nM | selectivity ratio [12]: 5
CCCC[C@@H](C(=O)O)N1C(=O)/C(=C/c2ccc(-c3cccc(Cl)c3)c3ccccc23)SC1=S | 670 nM | – | 1530 nM | inhibition [5]: 99.9%
O=C(O)[C@H](C1CCCCC1)N1C(=O)/C(=C/c2ccc(-c3ccc(F)c(C(F)(F)F)c3)cc2)SC1=S | 490 nM | 101% | 5370 nM | IC50 [7]: > 64 µg/mL; half-life [8]: > 1.55 h; microsomal CLint [9]: < 22.1 µL/min/mg; IC50 (Vero): 30.2 µg/mL (≈ 57.7 µM); remaining at 0.5 h [10]: 101%; remaining at 0.5 h [11]: 101%; Stability [13]: Stable; microsomal CLint [14]: < 6.1 µL/min/mg; Activity [15]: Dose-Dependent Effect; Stability [16]: Stable; half-life [17]: > 1.55 h; MIC [18]: 30.5 µg/mL (≈ 58.3 µM); inhibition [19]: 27.1%
